{
  "source": "patent US7094809B2",
  "about": "“Method of treating subject infected with Neisseria gonorrhea” (Northeastern Ohio Universities College of Medicine, priority 2000, dated 2006)",
  "key": {"HSV-1 [1]": {"tested_on": "HSV-1", "assay": "Direct inactivation of HSV-1 inoculum, residual pfu by plaque assay", "assay_type": "cell-based", "conditions": "105 μM, room temperature, 1 to 60 minutes, data not shown", "experimental": "To determine whether hydroxylated tolans block formation of infectious herpes virus particles by directly inactivating the virus, a standard inoculum of HSV-1 was mixed with 105 μM 4,4′-dihydroxytolan in medium, with 0.2% DMSO in medium, or with media alone and placed at room temperature. The number of residual pfu's present at 1, 10, 30, and 60 minutes after addition of each respective solution to the virus was determined by plaque assay."}, "HSV-1 [2]": {"tested_on": "HSV-1", "assay": "Reversibility of inhibition of HSV replication, Vero cells, moi 1 (Example 5)", "assay_type": "cell-based", "conditions": "105 μM", "experimental": "Vero cells were grown to confluence and infected with HSV-1 at an moi of 1 and then incubated in media lacking a hydroxylated tolan (control cultures) or in media containing 105 μM 4,4′-dihydroxytolan. One set of infected cells was maintained in the dihydroxylatedtolan for a period of 72 hours. In another set of infected cells the dihydroxytolan-containing media was replaced with media lacking a hydroxylated tolan at 24 hours. In another set of cells the tolan-containing media was replaced with media lacking the hydroxylated tolan at 48 hours after infection. The number of infectious HSV particles produced by each set of infected cells was determined by plaque assay."}, "HSV-1 [3]": {"tested_on": "HSV-1", "assay": "Inhibition of HSV-1 replication in vitro, plaque assay (Example 9)", "assay_type": "cell-based", "experimental": "Tissue culture cells were infected with HSV-1 and incubated in solutions containing Tolan-5, Tolan-10 and Tolan-11. The concentrations used ranged from one-half to three-quarters of the calculated CD50 for the respective tolan at 48 hours of treatment. Specifically, Vero cells were infected with HSV-1 at a multiplicity of infection of one for one hour. At the end of that time, the cultures were rinsed with media and fresh media containing various concentration of the respective tolan were added. Infected control cultures were incubated in media lacking hydroxylated tolan. At 1, 24, 48, and 72 hours after infection, samples were frozen at −70° C. until assayed for new virus production. Virus production was quantified by the plaque assay for each time point of infection. The results, which are expressed as plaque forming units per milliliter (pfu/ml)."}, "HSV-1 [4]": {"tested_on": "HSV-1", "assay": "HSV-1 plaque assay, time of drug addition, Vero cells, moi 10 (Example 4)", "assay_type": "cell-based", "experimental": "Vero cell cultures were infected with HSV-1 as described above in Example 3 except that the cells were infected with virus at an moi of 10. Under these conditions nearly all of the cells are infected with virus during the initial one hour incubation period. Following removal of unattached virus, the virally-infected cultures were incubated in control medium lacking a hydroxylated tolan or medium to which 105 μM 4,4′-dihydroxytolan had been added at 1, 3, 6, or 9 hours after removal of the unattached virus. At 24 hours after infection, the number of pfu's present in the cells and medium of untreated and hydroxylated tolan-treated cultures was determined."}, "Vero cells [5]": {"tested_on": "Vero cells", "assay": "MTT colorimetric cell toxicity assay", "assay_type": "cell-based, African green monkey", "experimental": "Cell toxicity of the tolans 4,4′-dihydroxytolan (“Tolan-5”), 3,4′,5-trihydroxytolan (“Tolan-10”) and 4-hydroxy-4′-trifluoromethyltolan (“Tolan-11”) was determined using an MTT assay. In this assay, cells are exposed to MTT, 3-(4,5-dimethylthiazol-2-yl)-2,5-diphenyltetrazolium bromide, which is taken into the cells and reduced by mitochondrial dehydrogenase to a purple formazan, a large molecule which is unable to pass through intact cell membranes, and therefore accumulates in healthy cells. The ability of cells to reduce MTT is an indication of mitochondrial integrity and activity, which may be interpreted as a measure of viability. Solubilization of the cells results in the liberation of the product which can readily be detected spectrophotometrically.\nVarious concentrations of Tolan-5, Tolan-10 and Tolan-11 were added to 96 well tissue culture plates that had been seeded with Vero cells. The plates were then incubated at 37° C. in 5% CO2/95% air for 24, 48 and 72 hours. At the end of each time point, 50 μl of MTT (1 mg/ml) was added to the tissue culture plates which were then incubated for an additional four hours. At the end of that time, dimethyl sulfoxide (DMSO) was added to dissolve the cells and formazan, and the plates were read spectrophotometrically at 540 nm. […] Presented in Table I below are the toxicity results for Tolan-5, Tolan-10, and Tolan-11 measured at 24, 48 and 72 hours of treatment."}, "ICP-27": {"tested_on": "ICP-27", "assay": "Western blot of ICP-27 in HSV-1 infected Vero cells", "assay_type": "cell-based", "conditions": "105 μM, 24 hours", "experimental": "(§1) ICP-4 and ICP-27 are immediate-early regulatory proteins of HSV-1 that are required for efficient replication of this virus. To determine whether ICP-4 or ICP-27 production is altered by treatment with a hydroxylated tolan, separate cultures of Vero cells were infected with HSV-1 at an moi of 1 and incubated in control medium or medium containing 105 μM 4,4′-dihydroxytolan for 24 hours. Infected cells were scraped from the flask, collected by centrifugation, and resuspended in cold tris-buffered saline, pelleted by centrifugation, and the cell pellet frozen at −70° C. Proteins were extracted from the thawed pellets, separated by 6–15% SDS-PAGE, and assayed on a Western blot by reacting with mouse monoclonal antibody to ICP-4 or ICP-27 from Goodwin Institute for Cancer Research Inc., FL."}, "Vero cells [6]": {"tested_on": "Vero cells", "assay": "Cell viability studies, uninfected Vero cells", "assay_type": "cell-based, African green monkey", "conditions": "105 μM, 24 hours", "experimental": "Cell viability studies confirmed that treatment of uninfected Vero cells with 105 μM 4,4′-dihydroxytolan for 24 hours was not toxic."}, "ICP-4": {"tested_on": "ICP-4", "assay": "Western blot of ICP-4 in HSV-1 infected Vero cells", "assay_type": "cell-based", "conditions": "105 μM, 24 hours", "experimental": "as §1"}, "HSV-1 [7]": {"tested_on": "HSV-1", "assay": "HSV-1 plaque assay, infected Vero cells, moi 1 (Example 3)", "assay_type": "cell-based", "experimental": "Cultures of African green monkey kidney cells (Vero) cells, obtained from the American Type Culture Collection, Rockville, Md. were grown to confluence in Medium 199 supplemented with 5% fetal bovine serum, 0.075% NaHCO3, and 50 μg/ml gentamycin sulfate in 25 cm^2 tissue culture flasks. Cells were infected with HSV-1 at a multiplicity of infection (moi) of one and incubated at room temperature for one hour to allow for virus attachment to and penetration of the cell. Under these conditions, approximately half of the cells are infected with virus. Thereafter, the cultures were rinsed three time with media and incubated in medium containing 50 μM or 75 μM 4, 4′-dihydroxytolan prepared in 0.2% dimethyl-sulfoxide (DMSO). Controls were treated identically, but were incubated without the dihyroxylated tolan. For purposes of comparison, HSV cell were also inoculated in the presence of 52.5 μM 4,4′-dihydroxystilbene. Due to the higher cell toxicity of the stilbene, cells were not incubated in the presence of 75 μM dihydroxystilbene.\nUpon addition of the medium to the cultures and at 24 hours time periods thereafter, i.e., 0 hours, 24 hours, 48 hours, and 72 hours after addition of the drug, cells and medium were frozen at −70° C. Samples were then thawed, sonicated and titrated on Vero cells to determine the number of plaque forming units (pfu's) of virus produced by each culture."}},
  "data": [
    {"smiles": "Oc1ccc(C#Cc2ccc(O)cc2)cc1", "note": "[Tolan-5, 4,4′-dihydroxytolan]", "values": [
      {"measurement": "direct inactivation of HSV", "setting": "HSV-1 [1]", "value": "did not directly inactivate HSV"},
      {"measurement": "reversibility of inhibitory effect on HSV replication", "setting": "HSV-1 [2]; drug removed at 24 or 48 hours", "value": "reversible"},
      {"measurement": "cell killing on prolonged exposure", "setting": "HSV-1 [2]; prolonged period of time, mammalian cells", "value": "does not kill the cells"},
      {"measurement": "inhibition of virus, comparison of concentrations", "setting": "HSV-1 [3]; 75 μm versus 50 μm", "value": "more inhibitory to the virus at 75 μm that at 50 μm"},
      {"measurement": "HSV-1 production", "setting": "HSV-1 [3]; Vero cells, moi 1, up to 72 hours", "value": "inhibited HSV-1 production"},
      {"measurement": "inhibition of production of virus", "setting": "HSV-1 [4]; 105 μM added 6 hours after infection, pfu at 24 hours, moi 10", "value": "approximately 90%"},
      {"measurement": "reduction of production of virus", "setting": "HSV-1 [4]; 105 μM added one hour after infection, pfu at 24 hours, moi 10", "value": "more than 99%"},
      {"measurement": "inhibition at 105 µM", "setting": "HSV-1 [4]; Human alphaherpesvirus 1, Vero, 105 μM added 3 hours after infection, pfu at 24 hours, moi 10, read-out: inhibition of production of virus", "value": "~90", "unit": "%"},
      {"measurement": "formation of infectious virus particles", "setting": "HSV-1 [4]; added 9 hours after infection", "value": "not inhibited"},
      {"measurement": "CD50", "setting": "Vero cells [5]; 48 hours", "value": 106, "unit": "µM"},
      {"measurement": "CD50", "setting": "Vero cells [5]; 72 hours", "value": 84.0, "unit": "µM"},
      {"measurement": "synthesis of ICP-27", "setting": "ICP-27", "value": "significantly reduced"},
      {"measurement": "toxicity to uninfected Vero cells", "setting": "Vero cells [6]", "value": "not toxic"},
      {"measurement": "synthesis of ICP-4", "setting": "ICP-4", "value": "significantly reduced"},
      {"measurement": "reduction of new virus production", "setting": "HSV-1 [7]; 50 μM", "value": 95, "unit": "%"},
      {"measurement": "infectious HSV particles in cultures", "setting": "HSV-1 [7]; 75 μM continuously, by 72 hours", "value": "virtually undetectable"},
      {"measurement": "inhibition at 75 µM", "setting": "HSV-1 [7]; Human alphaherpesvirus 1, 75 μM, 24 hours, Vero cells, moi 1, read-out: inhibition of formation of infectious virus particles", "value": "> 99", "unit": "%"}
    ]}
  ]
}
